Results as given in patent US5418236A, “Anxiolytic aroyl piperidinyl and piperazinylacyl pyrroles” (Ortho Pharmaceutical Corporation, priority 1993, dated 1995).
Read-outs that look alike come from different tables or passages of the source.

Tests used:
5-HT1A receptor = biological target: T1, 5-HT1A receptor (Rattus norvegicus, UniProt P19327); assay: 5-HT1A assay (competitive binding, 3H-8-hydroxy-DPAT, cerebral cortex P2 fraction); set-up: species or system male, Wistar rats
T1 construct: P2 fraction (synaptosomal membranes) from the cerebral cortex of male, Wistar rats; from tissue; host or cells: cerebral cortex of male Wistar rats, P2 fraction (synaptosomal membranes)
T1 sequence (P19327 1-422): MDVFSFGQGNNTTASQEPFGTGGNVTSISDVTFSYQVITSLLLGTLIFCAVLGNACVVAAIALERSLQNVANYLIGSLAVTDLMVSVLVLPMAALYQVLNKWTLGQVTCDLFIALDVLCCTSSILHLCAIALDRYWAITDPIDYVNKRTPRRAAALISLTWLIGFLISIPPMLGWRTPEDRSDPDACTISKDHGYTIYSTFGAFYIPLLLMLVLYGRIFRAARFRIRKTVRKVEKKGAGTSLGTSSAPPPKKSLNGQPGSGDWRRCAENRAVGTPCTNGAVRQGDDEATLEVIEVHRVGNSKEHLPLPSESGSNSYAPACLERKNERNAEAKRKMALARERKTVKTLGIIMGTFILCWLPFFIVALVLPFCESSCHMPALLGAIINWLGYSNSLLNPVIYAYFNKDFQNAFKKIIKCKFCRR
Method: The 5-HT1A assay used a P2 fraction (synaptosomal membranes) from the cerebral cortex of male, Wistar rats. The ligand ^3 H-8-hydroxy-DPAT was used in competitive binding experiments at a concentration of 3 nM, and 1 mM serotonin as a blank determinant. Incubation was in 3 mM potassium phosphate buffer for 20 min at 25° C.
The data from each assay were analyzed by calculating the percent inhibition of the binding of the tritiated ligands by given concentrations of the test compound. Ki values, where given, were obtained from the logit analysis of concentration-inhibition curves.

α1 receptor = assay: binding to the α1 receptor; settings: for inhibition in binding to the α1 receptor: 1 μM
D2 receptor [1] = biological target: D2 receptor (Homo sapiens, UniProt P14416); settings: background statement; cited from earlier work
D2 receptor [2] = biological target: D2 receptor (Rattus norvegicus, UniProt P61169); assay: binding to the D2 receptor; settings: 1 μM
5-HT2 receptor = 5-HT2 receptor (Rattus norvegicus, UniProt P14842); assay: binding to the 5-HT2 receptor; settings: 1 μM
Male rats = assay: anxiolytic activity: release of behavior suppressed by punishment (Vogel conflict test); type: in vivo
Method: The anxiolytic activity of selected compounds of the invention was assessed by determining their ability to release (disinhibit) behavior that had been suppressed by punishment (Vogel, J. R. et al. Psychopharmacology 1971, 21, 1). Male rats were deprived of water for 48 hours and were deprived of food for 24 hours prior to testing. After the first 24 hours of water deprivation, they were placed in the conflict chamber for a training period; wherein, they were allowed 200 unpunished licks from a bottle containing tap water. The experiment was run the next day. At the expected time of peak activity, the animals were placed in the chamber and allowed access to tap water. […] Their first lick initiates a 3-min test session. Subsequently,every 20th lick was punished by a 0.2-s shock delivered via the stainless-steel drinking-tube. Vehicle-treated control animals generally were willing to accept a median number of 3 to 8 shocks per test session. […] The Wilcoxon rank-sum test (Mann-WhitneyU-test) was used to test for an increase (p<0.05, 1-tailed) in the median number of shocks in drug-treated groups, compared to a concurrently run vehicle-treated group. The biological assay is considered to be valid if the effects of a known anxiolytic (positive control) are detected, within the same experiment. […]

[3] = 3H-8-hydroxy-DPAT 3 nM, 20 min, 25° C., rat cerebral cortex P2 fraction
[4] = 3H-8-hydroxy-DPAT 3 nM, 20 min, 25° C., rat cerebral cortex P2 fraction, read-out: Ki (5HT1A)

Chain of D2 receptor (Rattus norvegicus, UniProt P61169) (P61169 whole entry): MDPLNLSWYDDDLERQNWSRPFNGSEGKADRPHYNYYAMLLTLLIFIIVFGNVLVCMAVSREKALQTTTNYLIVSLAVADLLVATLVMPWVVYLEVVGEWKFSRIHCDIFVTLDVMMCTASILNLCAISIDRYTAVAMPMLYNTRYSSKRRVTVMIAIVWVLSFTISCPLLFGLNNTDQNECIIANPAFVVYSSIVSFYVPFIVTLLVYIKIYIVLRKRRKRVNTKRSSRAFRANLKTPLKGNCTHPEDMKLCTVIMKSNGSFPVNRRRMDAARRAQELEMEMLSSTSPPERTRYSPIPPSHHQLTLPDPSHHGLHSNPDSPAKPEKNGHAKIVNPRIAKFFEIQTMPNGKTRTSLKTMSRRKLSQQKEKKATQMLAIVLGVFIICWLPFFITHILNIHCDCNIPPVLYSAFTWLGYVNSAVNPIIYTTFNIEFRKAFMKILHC
Chain of 5-HT2 receptor (P14842 whole entry): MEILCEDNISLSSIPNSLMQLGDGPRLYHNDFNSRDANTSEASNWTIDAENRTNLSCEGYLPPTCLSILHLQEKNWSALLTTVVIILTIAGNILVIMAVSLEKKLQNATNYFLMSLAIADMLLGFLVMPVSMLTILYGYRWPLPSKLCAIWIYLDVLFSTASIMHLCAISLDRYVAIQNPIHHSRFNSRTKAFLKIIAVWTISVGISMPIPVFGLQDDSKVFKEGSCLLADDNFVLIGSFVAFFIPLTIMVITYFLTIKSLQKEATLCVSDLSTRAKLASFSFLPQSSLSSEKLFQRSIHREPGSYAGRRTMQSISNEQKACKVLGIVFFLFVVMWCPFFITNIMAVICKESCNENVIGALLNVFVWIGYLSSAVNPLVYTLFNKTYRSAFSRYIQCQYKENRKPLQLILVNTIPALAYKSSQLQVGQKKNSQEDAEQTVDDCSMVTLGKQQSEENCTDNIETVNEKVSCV
Chain of D2 receptor (Homo sapiens, UniProt P14416) (P14416 whole entry): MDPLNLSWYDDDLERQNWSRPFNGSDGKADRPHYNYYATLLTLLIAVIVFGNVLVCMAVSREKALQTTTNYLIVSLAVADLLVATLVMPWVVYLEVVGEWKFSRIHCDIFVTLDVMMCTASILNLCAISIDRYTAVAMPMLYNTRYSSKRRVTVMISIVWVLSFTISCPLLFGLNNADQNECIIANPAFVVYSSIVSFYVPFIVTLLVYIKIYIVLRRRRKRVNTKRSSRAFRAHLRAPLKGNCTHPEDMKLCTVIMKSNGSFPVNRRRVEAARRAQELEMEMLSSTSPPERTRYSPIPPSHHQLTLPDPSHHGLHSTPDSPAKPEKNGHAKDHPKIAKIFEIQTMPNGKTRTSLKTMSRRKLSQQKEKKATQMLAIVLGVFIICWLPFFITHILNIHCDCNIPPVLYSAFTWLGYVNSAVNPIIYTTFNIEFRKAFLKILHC

Cn1cc(C(=O)CN2CCN(c3ccccn3)CC2)cc1C(=O)c1ccc(Cl)cc1 [Example 6-2] gave an inhibition at 1 µM (5-HT1A receptor; [3]) of 94%.

COc1cccc(OC)c1OCCNCC1COc2ccccc2O1 (stereo not drawn) [WB4101, reference compound] gave a Ki (5-HT1A receptor; [4]) of 0.32 nM.

For O=C1CC2(CCCC2)CC(=O)N1CCCCN1CCN(c2ncccn2)CC1 [buspirone], the Ki (α1 receptor) is given as 138 nM and the “binding to the D2 receptor” value (D2 receptor [1]) is given as “binds to the D2 receptor”.

For Cn1cc(C(=O)CN2CCN(c3ncccn3)CC2)cc1C(=O)c1ccc(F)cc1 [Example 6-4], the inhibition at 1 µM (5-HT1A receptor; [3]) was 91%.

CC(C)Oc1ccccc1N1CCN(CC(=O)c2cc(C(=O)c3ccccc3Cl)n(C)c2)CC1 [Example 6-3] gave an inhibition at 1 µM (5-HT1A receptor; [3]) of 83%.

In the case of Cc1c(C(=O)CN2CCN(c3ncccn3)CC2)c(C)n(C)c1C(=O)c1ccc(Cl)cc1 [Example 6-1], the inhibition at 1 µM (5-HT1A receptor; [3]) is reported as 24%.

With Cc1c(C(=O)CCCCN2CCN(c3ncccn3)CC2)c(C)n(C)c1C(=O)c1ccc(Cl)cc1 [Example 6-6] the Ki (5-HT1A receptor; [4]) was 6 nM.

For Cn1cc(C(=O)CN2CCN(c3ncccn3)CC2)cc1C(=O)c1ccc([N+](=O)[O-])cc1 [Example 5, 1-[1-Methyl-5-(4-nitrobenzoyl)-1H-pyrrol-3-yl]-2-[4-(2-pyrimidinyl)-1-piperazinyl]ethanone], the Ki (5-HT1A receptor; [4]) was 7.7 nM, the “inhibition in binding to the D2 receptor” value (D2 receptor [2]) was “no inhibition” and the “inhibition in binding to the 5-HT2 receptor” value (5-HT2 receptor) was “no inhibition”. For the same compound, the “inhibition in binding to the α1 receptor” value (α1 receptor) was “no inhibition” and the change in responding (Male rats; 5 mg/kg IP) was 240%.

For Cc1ccc(N(CC2=NCCN2)c2cccc(O)c2)cc1 [phentolamine, reference compound], the Ki (5-HT1A receptor) was 59 nM.

Work on Cn1cc(C(=O)CN2CCN(c3cccc4ccccc34)CC2)cc1C(=O)c1ccc(Cl)cc1 [Example 6-5] yielded an inhibition at 1 µM (5-HT1A receptor; [3]) of 67%.

In the case of Cl.Cn1cc(C(=O)CN2CCC(O)(c3ccc(Cl)cc3)CC2)cc1C(=O)c1ccccc1Cl [Example 7, 1-[5-(2-Chlorobenzoyl)-1-methyl-1H-pyrrol-3-yl]-2-[4-(4-chlorophenyl)-4-hydroxy-1-piperidinyl]ethanone Hydrochloride], the Ki (5-HT1A receptor) is reported as 15 nM, the “inhibition in binding to the D2 receptor” value (D2 receptor [2]) is reported as “no inhibition” and the “inhibition in binding to the 5-HT2 receptor” value (5-HT2 receptor) is reported as “no inhibition”. For the same compound, the “inhibition in binding to the α1 receptor” value (α1 receptor) was “no inhibition” and the change in responding (Male rats; 10 mg/kg IP) was 180%.

For Cn1cc(C(=O)CN2CCC(c3ccccc3)CC2)cc1C(=O)c1ccc(Cl)cc1 [Example 8, 1-[5-(4-chlorobenzoyl)-1-methyl-1H-pyrrol-3-yl]-2-(4-phenylpiperidinyl)-ethanone], the inhibition at 1 µM (5-HT1A receptor; [3]) was 69%.
